The values below come from PubChem BioAssay (NCI).

Several values for one entry are separate records, joined by “and”; a condition that tells them apart may be missing. Equal values may be shown once.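 Following 48 hours of exposure in 96-well plates, responses at five concentrations were used to interpolate endpoints linearly. The concentration for 50% growth inhibition is given as GI50. At the TGI there is no net growth.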

Among the test systems are CCRF-CEM leukemia; HOP-92 NSCLC; NCI-H460 lung; NCI/ADR-RES ovarian; OVCAR-8 ovarian; PC-3 prostate; RXF 393 renal; SF-268 CNS; SK-MEL-5 melanoma; SR leukemia.
Holding throughout (assay): NCI tumour cell line growth inhibition, 48 h

As to `O=C(Nc1cccc(C(F)(F)F)c1)Nc1cc(S(=O)(=O)NC2CC2)ccc1-c1ccsc1`, the GI50 in the test with CCRF-CEM leukemia is 3.25 µM; in the test on HOP-92 NSCLC, 1.73 µM; in the test with NCI-H460 lung it was 3.4 µM; in the test with NCI/ADR-RES ovarian it was 6.05 µM; with OVCAR-8 ovarian, 4.07 µM; in the test on PC-3 prostate, 3.4 µM. Further, the GI50 in the test with RXF 393 renal was 4.98 µM; in the test on SF-268 CNS, 5.95 µM; in the test with SK-MEL-5 melanoma, 2.31 µM; with SR leukemia, 2.72 µM. Besides, the TGI worked out at 18.3 µM in the test on CCRF-CEM leukemia; 7.45 µM with HOP-92 NSCLC; 11.6 µM in the test on NCI-H460 lung; 26.9 µM in the test on NCI/ADR-RES ovarian; 18.1 µM in the test on OVCAR-8 ovarian; 18.6 µM with PC-3 prostate. The TGI in the test on RXF 393 renal is 18.8 µM; with SF-268 CNS, 21.3 µM; in the test on SK-MEL-5 melanoma, 5.65 µM; in the test on SR leukemia, 8.92 µM.
With `Cc1ccc(S(=O)(=O)NCc2cccc([N+](=O)[O-])c2)cc1`, the TGI in the test with CCRF-CEM leukemia, in the test with HOP-92 NSCLC, in the test on NCI-H460 lung, in the test on NCI/ADR-RES ovarian, with OVCAR-8 ovarian and in the test on PC-3 prostate was more than 100 µM each time. Further, the TGI with RXF 393 renal, in the test on SF-268 CNS, in the test with SK-MEL-5 melanoma and in the test on SR leukemia was more than 100 µM throughout.
As for `Oc1ccc(/C=N/Nc2nnc(N/N=C/c3ccc(O)cc3O)c3ccccc23)c(O)c1`, the GI50 in the test with CCRF-CEM leukemia is 0.28 µM; in the test with HOP-92 NSCLC it was 0.496 µM; in the test with NCI-H460 lung, 0.414 µM; in the test with OVCAR-8 ovarian it was 0.494 µM; in the test with RXF 393 renal it was 0.519 µM; in the test with SF-268 CNS, 0.353 µM. For the same compound, the GI50 in the test on SK-MEL-5 melanoma was 0.413 µM; in the test on SR leukemia it was 0.205 µM. Also, the TGI was 0.783 µM and 5.49 µM with CCRF-CEM leukemia; 2.65 µM with HOP-92 NSCLC; 1.76 µM in the test on NCI-H460 lung; 12.5 µM in the test on NCI/ADR-RES ovarian; 8.82 µM in the test on PC-3 prostate; 2.4 µM with RXF 393 renal. In addition, the TGI with SK-MEL-5 melanoma was 0.744 µM and 3.19 µM; with SR leukemia, 0.592 µM and 0.719 µM.
As for `CC(C)C12CCC3(CCC4C(C)(C(=O)O)CCCC4(C)C3C1)C(CN)C2` (configuration not stated), the TGI in the test with CCRF-CEM leukemia was 19.4 µM; in the test with HOP-92 NSCLC it was more than 100 µM; in the test with NCI-H460 lung it was 52.3 µM; in the test with NCI/ADR-RES ovarian it was more than 100 µM; with OVCAR-8 ovarian, more than 100 µM; in the test on PC-3 prostate, more than 100 µM. Also, the TGI in the test with RXF 393 renal is more than 100 µM; in the test on SF-268 CNS, more than 100 µM; in the test on SK-MEL-5 melanoma, 86.2 µM; with SR leukemia, 60.1 µM.
Take `COC(=O)C(NC(=O)c1ccccc1)c1ccc(OC)c(I)c1` (configuration not stated): the GI50 in the test on CCRF-CEM leukemia is 53.8 µM; with HOP-92 NSCLC, 58.6 µM; in the test on NCI-H460 lung, 67.6 µM; in the test on NCI/ADR-RES ovarian, 36.4 µM; with OVCAR-8 ovarian, more than 100 µM; with PC-3 prostate, 40.1 µM. Further, the GI50 with RXF 393 renal is more than 100 µM; in the test on SF-268 CNS, more than 100 µM; with SK-MEL-5 melanoma, 44.2 µM; in the test with SR leukemia, 35.2 µM. In addition, the TGI in the test with CCRF-CEM leukemia, with HOP-92 NSCLC, in the test with NCI-H460 lung, in the test with NCI/ADR-RES ovarian, in the test on OVCAR-8 ovarian and in the test on PC-3 prostate was more than 100 µM in each case. Moreover, the TGI in the test on RXF 393 renal, with SF-268 CNS, in the test on SK-MEL-5 melanoma and with SR leukemia was more than 100 µM each time.
On to `Cc1cccc(Cc2cnc(NC(=O)CCCOc3ccc(Cl)cc3)s2)c1`, for which the GI50 is 3.68 µM in the test on CCRF-CEM leukemia; 34.3 µM in the test on HOP-92 NSCLC; 3.32 µM in the test with NCI-H460 lung; 29.3 µM with NCI/ADR-RES ovarian; 27.3 µM in the test on OVCAR-8 ovarian; 4.58 µM in the test with PC-3 prostate. Further, the GI50 was 9.58 µM in the test with RXF 393 renal, more than 100 µM with SF-268 CNS, 3.69 µM in the test on SK-MEL-5 melanoma and 2.51 µM in the test on SR leukemia. Moreover, the TGI with CCRF-CEM leukemia, in the test on HOP-92 NSCLC, in the test with NCI-H460 lung, with NCI/ADR-RES ovarian, in the test on OVCAR-8 ovarian and in the test on PC-3 prostate was more than 100 µM throughout. Further, the TGI with RXF 393 renal, in the test on SF-268 CNS, in the test with SK-MEL-5 melanoma and in the test with SR leukemia was more than 100 µM in each case.
With `CCn1c(SC)nnc1-c1cc2c([nH]c3ccccc32)c(-c2cccc(O)c2)n1`, the GI50 with CCRF-CEM leukemia is 1.57 µM; in the test on HOP-92 NSCLC it was 1.1 µM; in the test with NCI-H460 lung, 1.6 µM; in the test on NCI/ADR-RES ovarian it was 3.71 µM; in the test on OVCAR-8 ovarian it was 3.62 µM; in the test with PC-3 prostate, 2.83 µM. The GI50 in the test with RXF 393 renal was 1.14 µM; with SF-268 CNS, 3.42 µM; in the test on SK-MEL-5 melanoma, 1.03 µM; in the test on SR leukemia it was 0.34 µM. The TGI in the test on CCRF-CEM leukemia was more than 100 µM; with HOP-92 NSCLC, 9.08 µM; in the test on NCI-H460 lung, 16.6 µM; in the test on NCI/ADR-RES ovarian, 36.1 µM; in the test with OVCAR-8 ovarian, 24.5 µM; with PC-3 prostate it was more than 100 µM. The TGI in the test with RXF 393 renal was 3.18 µM; in the test on SF-268 CNS, 25.5 µM; in the test on SK-MEL-5 melanoma, 5.97 µM; in the test on SR leukemia it was more than 100 µM.
On to `CC(C)(CCc1nc2ccccc2[nH]1)C(=O)O`, for which the TGI in the test on CCRF-CEM leukemia, with HOP-92 NSCLC, with NCI-H460 lung, in the test with NCI/ADR-RES ovarian, with OVCAR-8 ovarian and in the test on PC-3 prostate was more than 100 µM in each case. In addition, the TGI with RXF 393 renal, in the test with SF-268 CNS, in the test with SK-MEL-5 melanoma and with SR leukemia was more than 100 µM each time.
As to `COc1ccc(C[C@H](N)C(=O)N[C@@H]2[C@@H](CO)OC(n3cnc4c(N(C)C)ncnc43)[C@@H]2O)cc1` (some centres not stated), the GI50 is 0.12 µM in the test with HOP-92 NSCLC; 42.7 µM with NCI/ADR-RES ovarian; 0.276 µM with OVCAR-8 ovarian; 0.311 µM in the test on PC-3 prostate; 0.216 µM in the test on RXF 393 renal; 0.287 µM with SK-MEL-5 melanoma. In the test on SR leukemia, the GI50 was 0.17 µM. The TGI was 0.51 µM in the test on HOP-92 NSCLC; 0.889 µM in the test with NCI-H460 lung; 50 µM in the test with NCI/ADR-RES ovarian; 1.13 µM in the test on OVCAR-8 ovarian; 1.73 µM in the test on PC-3 prostate; 0.831 µM with RXF 393 renal. Further, the values for the TGI in the test on SF-268 CNS, with SK-MEL-5 melanoma and in the test on SR leukemia were 1.18 µM, 0.914 µM and 1.32 µM, respectively.
